Test results: US7625567B1, “Induction of immune responses to isoaspartyl-modified antigens” (Yale University, priority 2001, dated 2009)
Numbered stars: 1 amine (or outer) side, 2 acyl side, 3 side chain; on linkers, the order of the positions; unused ones are H or OH. Square brackets hold non-standard residues; d marks the D form. Ends that are not written are not given here. βAsp = O=C(O)[C@H](CC(=O)[*:2])N[*:1]

Experiments:
B16 melanoma cells = experiment: Isoaspartyl content of living B16 melanoma cells after adenosine dialdehyde treatment (ISOQUANT assay); format: cell-based, murine; conditions: 30 μM adenosine dialdehyde, 48 h
Protocol: Isoaspartyl residues were detected by the enzyme, protein isoaspartyl methyltransferase, according to the manufacturer's protocol (ISOQUANT™ Protein Deamidation Detection Kit, Promega Corp., Madison, Wis.). In brief, samples and control peptides are incubated 30 min. at 30 C in a reaction mixture containing protein isoaspartyl methyltransferase, [^3H}S-adenosyl-L-methionine, and cold S-adenyl-L-methionine. The reaction is stopped at pH 10 on ice and volatile [^3H]methanol is condensed in the reaction vessel. Fifty μl of sample is adsorbed to a sponge attached to the cap of a scintillation vial. The sample is incubated 60 min. at 40 C to volatize [^3H]methanol into the scintillation mixture and counted for counts/min. […]
Briefly, selected cells, such as B16-F0 melanoma cells, are grown to confluency. The cells are then exposed to trypsin and counted. […] The cells are next harvested using trypsin, washed, and counted. […] Protein concentration is determined in both the supernatant and the pellet. Isoaspartyl generation is determined by ISOQUANT assay described above.
In cell culture, B16 cells were incubated with 30 μM adenosine dialdehyde for 48 h as described above. […] Isoaspartyl content was determined as described above.

[1] = tested on: TRP-2 peptide pulsed syngeneic spleen cells; experiment: In vivo CTL assay: killing of tumor peptide pulsed target cells; parameters: species or system mice; conditions: 50 μg in CFA s.c., day 21, 16 hours
Protocol: In this approach, groups of 6 mice were immunized with isoaspartyl or aspartyl TRP-2 (50 μg in CFA), by subcutaneous route. At day 21 mice were examined for their ability to kill tumor peptide pulsed target cells (in vivo CTL assays) modified by the protocol of Coles, et al. (J. Immunol. 168:834-838 (2002)). In brief, two populations of syngeneic target spleen cells are labeled with low or high concentrations of CFSE (0.5 μM or 5.0 μM CFSE, respectively). Spleen cells labeled with 5.0 μM CFSE are pulsed with isoaspartyl or aspartyl TRP-2 peptide (1 μg/ml) as the in vivo target cell population. Both high CFSE labeled/TRP-2 peptide pulsed and low CFSE labeled/unpulsed spleen cells (1×10^7 cells for each population) are transferred by intravenous route into immunized mice as described above. Mice were sacrificed at 16 hours and in vivo lysis of peptide pulsed targets is defined by flow cytometry technology as: Ratio=% CFSE low/% CFSE high % Specific Killing=[1−(ratio in control immunized/ratio in immunized)×100].

[2] = tested on: TRP-2 specific CD8 T cells; experiment: MHC class I (H-2 Kb) TRP-2 tetramer staining of CD8 T cells after immunization; format: in vivo, mice; conditions: 50 μg s.c. in CFA, day 14 lymph node cells, 5 day culture with isoaspartyl TRP-2 10 μg/ml
Protocol: FIG. 9 illustrates that CD8 T cells specific for the TRP-2 peptide are elicited by immunization with isoaspartyl TRP-2 peptide. Mice were immunized subcutaneously with 50 μg of isoaspartyl TRP-2 emulsified in CFA. At day 14 after immunization, lymph node cells were removed and single cell suspensions (4×10^6 cells/ml) were incubated in culture with isoaspartyl TRP-2 peptide (10 μg/ml) for 5 days (37° C., 5% CO2). Living cells were purified by Ficoll-hypaque and incubated with anti-CD8-FITC antibody (Promega Inc.) and MHC class I (H-2 Kb) tetramers linked to PE, as indicated. Tetramer staining was performed with a control, non-specific peptide (SIINFEKL) (SEQ ID NO:4) and with aspartyl and isoaspartyl TRP-2 peptide tetramers, as indicated.

[3] = tested on: EL-4 target cells pulsed with TRP-2; experiment: Cytotoxicity of CD8 T cells from immunized mice against peptide-pulsed EL-4 target cells (Cytotox 96); format: in vivo; conditions: 50 μg in CFA s.c.; effector to target ratios 5:1, 10:1, 20:1; EL-4 targets
Protocol: FIG. 10 illustrates that immunization with isoaspartyl TRP-2 peptide elicits CD8 T cells that kill tumor peptide bearing target cells. Mice were immunized with isoaspartyl or aspartyl TRP-2 (50 μg in CFA), by subcutaneous route. Lymph node cells were expanded in vitro for 5 days with isoaspartyl TRP-2 as described above. After 5 days, purified effector CD8 T cells were mixed with EL-4 target cells pulsed with isoaspartyl TRP-2, aspartyl TRP-2, or unpulsed EL-4 cells, as indicated. Averages of triplicate cultures are reported for effector to target ratios of 5:1, 10:1, and 20:1. Cytotoxicity was performed by commercial non-radioactive methods (Ctyotox 96, Promega, Inc.) according to the manufacturer's instructions. As indicated in the upper panel of FIG. 10, mice immunized with isoaspartyl TR-2 peptide kill up to 35% of TRP-2 pulsed target cells.

[4] = tested on: CD8 T cells stimulated with isoaspartyl or aspartyl TRP-2 pulsed APCs; experiment: CD8 T cell proliferation after immunization with TRP-2 peptide; format: in vivo, C57B1/6 mice; conditions: 50 μg peptide s.c. in CFA, day 7 lymph node CD8 T cells
Protocol: FIG. 7 illustrates that immunization with isoaspartyl TRP-2 peptide elicits CD8 T cells that proliferate in response to stimulation with isoaspartyl or aspartyl TRP-2 peptide. For these studies, C57B1/6 mice are immunized subcutaneously with 50 μg of either isoaspartyl TRP-2 peptide or aspartyl TRP-2 peptide emulsified in complete Freund's adjuvant (CFA). After 7 days, lymph node cells are collected and CD8 T cells are purified by magnetic bead depletion of CD4+, B220+, CD11c+ cells. CD8 T cells (1×10^5) are incubated for 3 days in tissue culture (37° C., 5% CO2) with irradiated splenic antigen presenting cells (APCs; 5×10^5 cells) pulsed with isoaspartyl TRP-2 or aspartyl TRP-2 in the concentrations as indicated.

B16F10 melanoma cells = experiment: Anti-tumor antibody response: serum binding to B16F10 cells by flow cytometry; format: in vivo, mice; conditions: 50 μg peptide s.c., serum day 28, 1/100 dilution, anti-mouse IgG-FITC
Protocol: FIG. 8 illustrates that immunization with isoaspartyl TRP-2 elicits anti-tumor antibody responses. Mice were immunized subcutaneously with 50 μg of isoaspartyl or aspartyl TRP-2 peptide, as indicated. Mice were bled at day 28 post immunization. Serum (1/100 dilutions in phosphate buffered saline (PBS)) was incubated with B16F10 melanoma cells (5×10^5 cells) and analyzed by flow cytometry after the detection of bound antibody with anti-mouse IgG-FITC.

[5] = tested on: B16F10 melanoma tumor masses; experiment: CD8 T cell influx into B16F10 melanoma tumor tissue (immunohistochemistry); format: in vivo, mice; conditions: 50 μg in CFA s.c.; challenge day 21 with 0.5×10^6 B16F10 cells; tumors day 14 after challenge
Protocol: FIG. 11 illustrates an influx of CD8 T cells into melanoma tumor tissues of mice immunized with isoaspartyl TRP-2 immunized mice. […] For these studies, mice were immunized with isoaspartyl or aspartyl TRP-2 (50 μg in CFA), by subcutaneous route. At day 21, mice were challenged with 0.5×10^6 B16F10 melanoma cells by subcutaneous route. At day 14 after tumor cell challenge, tumor masses were removed and stain for CD8 T cells by conventional immunohistochemistry.

B16F10 tumor cells = experiment: Survival of immunized mice challenged with B16F10 tumor cells; format: in vivo; conditions: 50 μg in CFA s.c.; challenge s.c. day 21 with 0.5×10^6 cells; groups of 10 mice
Protocol: For these studies, groups of 10 mice were immunized with isoaspartyl or aspartyl TRP-2 (50 μg in CFA), by subcutaneous route as described above. Mice were challenged subcutaneously at day 21 with 0.5×10^6 cells. Survival was assessed every 3 days.

[6] = tested on: B and T cell compartments; conditions: mice immunized with peptide (Mamula et al. 1999); cited from earlier work
[7] = target cells transferred: Asp TRP-2 pulsed
[8] = target cells transferred: Isoasp TRP-2 pulsed

## Nc1ncnc2c1ncn2C(C=O)OC(C=O)CO (centres unmarked) [adenosine dialdehyde]
B16 melanoma cells
  isoaspartyl content compared to untreated B16 cells: enhanced from two to five fold

## Aspartyl TRP-2: TRP-2 peptide (sequence 181-188) synthesized with an aspartic acid residue at 183 (SEQ ID NO:2) (VYDFFVWL; Human)
[1]; [7]
  % Specific Killing: 5%
[1]; [8]
  % Specific Killing: 22%
[2]
  TRP-2 specific CD8 T cells bound by aspartyl and isoaspartyl TRP-2 tetramers: failed to stimulate TRP-2 specific CD8 T cells
[3]
  killing of TRP-2 pulsed target cells: fail to elicit cytotoxic T cell responses
[4]
  CD8 T cell response to stimulation with isoaspartyl or aspartyl TRP-2 peptide: fails to elicit any detectable T cell responses
B16F10 melanoma cells
  anti-tumor antibodies binding B16F10 cells: little or no anti-tumor antibodies are detected
[5]
  influx of CD8 T cells into tumor masses: fail to show CD8 T cells in the tumor masses

## Isoaspartyl TRP-2: TRP-2 peptide (sequence 181-188) synthesized with an isoaspartyl amino acid modification at residue 183 (SEQ ID NO:3) (VY[βAsp]FFVWL)
B16F10 tumor cells
  survival after B16F10 challenge: greater survival as compared to mice immunized with aspartyl TRP-2 or CFA control immunizations
[1]; [7]
  % Specific Killing: 56%
[1]; [8]
  % Specific Killing: 60%
[2]
  TRP-2 specific CD8 T cells bound by aspartyl and isoaspartyl TRP-2 tetramers: profoundly stimulated the growth of CD8 T cells that were bound by aspartyl and isoaspartyl TRP-2 tetramers
[3]
  killing of TRP-2 pulsed target cells: up to 35%
[4]
  CD8 T cell response to stimulation with isoaspartyl or aspartyl TRP-2 peptide: elicits cross reactive T cells that respond to stimulation with either isoaspartyl or aspartyl TRP-2 peptide
B16F10 melanoma cells
  anti-tumor antibodies binding B16F10 cells: effectively bind B16F10 cells
[5]
  influx of CD8 T cells into tumor masses: significant influx of CD8 T cells

## murine cytochrome c peptide 90-104: murine cytochrome c peptide 90-104, normal aspartyl form (ERADLIAYLKKATNE; UniProt P62897 91-105, looked up, fragment)
[6]
  B and T cell response to immunization: no response by the B or T cell compartments
